Target: T1, Gr21a/Gr63a heteromeric CO2 receptor (ab1C neuron) (Drosophila melanogaster, UniProt Q9VPT1+Q9VZL7)
T1 sequence (Q9VPT1 1-447): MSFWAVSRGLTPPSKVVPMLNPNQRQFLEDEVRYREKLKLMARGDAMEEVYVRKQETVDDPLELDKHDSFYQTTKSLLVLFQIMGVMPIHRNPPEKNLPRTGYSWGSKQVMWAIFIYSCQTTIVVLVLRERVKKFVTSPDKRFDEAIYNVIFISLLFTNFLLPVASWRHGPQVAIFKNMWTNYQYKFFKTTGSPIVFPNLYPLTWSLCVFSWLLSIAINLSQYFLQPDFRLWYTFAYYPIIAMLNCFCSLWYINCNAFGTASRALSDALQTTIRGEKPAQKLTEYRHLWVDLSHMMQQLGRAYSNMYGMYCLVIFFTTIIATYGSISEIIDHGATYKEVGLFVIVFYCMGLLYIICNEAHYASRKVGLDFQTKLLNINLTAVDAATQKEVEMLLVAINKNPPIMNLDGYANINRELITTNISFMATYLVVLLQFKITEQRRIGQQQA
T1 sequence (Q9VZL7 1-512): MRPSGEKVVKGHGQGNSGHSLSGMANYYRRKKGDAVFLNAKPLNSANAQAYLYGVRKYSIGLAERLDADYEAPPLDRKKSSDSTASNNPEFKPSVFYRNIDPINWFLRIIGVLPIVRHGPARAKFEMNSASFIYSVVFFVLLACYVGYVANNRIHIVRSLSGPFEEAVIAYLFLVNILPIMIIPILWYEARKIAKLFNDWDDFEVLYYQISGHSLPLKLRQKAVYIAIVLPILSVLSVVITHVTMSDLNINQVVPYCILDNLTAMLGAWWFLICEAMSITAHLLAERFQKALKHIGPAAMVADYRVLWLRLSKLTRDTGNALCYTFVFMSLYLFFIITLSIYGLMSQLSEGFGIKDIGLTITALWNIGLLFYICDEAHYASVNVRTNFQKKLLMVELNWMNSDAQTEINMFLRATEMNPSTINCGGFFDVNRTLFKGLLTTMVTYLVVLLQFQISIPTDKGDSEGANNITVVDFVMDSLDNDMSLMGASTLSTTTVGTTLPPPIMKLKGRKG
Experiment: single-sensillum recording of ab1C neuron
Type: cell-based
Details: inhibitor; orco mutant flies; native neuron in vivo

SMILES: CCOC(=O)C(C)=O [ethyl pyruvate]
- single-sensillum recording of ab1C neuron: the cpA inhibitor ethyl pyruvate also effectively inhibited the ab1C neuron

Reference: publication PMC3899525 (Cell, 2013)
